Measured values reported in patent publication US6562854B2, “Compositions comprising a substituted benzimidazole useful for treating immunomediated inflammatory disorders” (Axys Pharmaceuticals, Inc., priority 1994, dated 2003).

Legend:
[1] = tested on: tryptase purified from human lung or skin tissue preparations or human mast cell line (HMC-1); experiment: In vitro Tryptase Inhibition Assay; format: biochemical; details: substrate tosyl-Gly-Pro-Lys-p-nitroanilide; Tris-HCl pH 8.2; zinc chloride 150 μM; 1 hour preincubation at room temperature; read-out: Ki (apparent inhibition constant, tryptase inhibitory activity)
Method: Tryptase solution ([…]) was prepared by dissolving tryptase purified from human lung or skin tissue preparations or human mast cell line (HMC-1) or obtained from commercial sources, e.g., ICN Biomeidals, Irvine, Calif., Athens Research & Technology, Athens, Ga., etc., in a solvent mixture comprising: 10 mM 2-N-morpholinoethane sulfonic acid, 2 mM CaCl2, 20% glycerol and 50 µg/mL heparin. Substrate solution containing 2 mM synthetic tripeptide (tosyl-Gly-Pro-Lys-p-nitroanilide) was obtained from Sigma. Test Compound solutions were prepared by diluting a stock solution (1 mg of test Compound in 200 μL of dimethylsulfoxide (DMSO)) by ten-fold into assay buffer (comprising: Tris-HCl (pH 8.2), 50 mM; NaCl, 100 MM; 0.05% polyoxyethylenesorbitan monolaurate (Tween-20®); and zinc chloride, 150 μM) and then making seven additional three-fold dilutions into 10% DMSO in assay buffer.
Aliquots (50 μL) from each of the eight dilutions of test compound solution were added to separate wells in a 96-well U-bottom microtiter plate. Typtase solution (25 μL) was added to each well and the solutions were mixed 1 hour at room temperature. Substrate solution (25 μL) was added to initiate the enzymatic reaction and the microtiter plates were immediately transferred to a UVIMAX Kinetic Microplate Reader (Molecular Devices). The hydrolysis of the chromogenic substrate was followed spectrophotometrically at 405 nanometers for five minutes. Initial velocity measurements were calculated from the progress curves by kinetic analysis program (BatchKi; Petr Kuzmic, University of Wisconsin, Madison, Wis.). Apparent inhibition constants (K) were calculated from the enzyme progress curves using standard mathematical models.

antigen challenged sheep = experiment: Sheep Model of Asthma (allergic sheep, antigen challenge); format: in vivo
From the text: The allergic sheep model of asthma was employed for the in vivo evaluation of the compounds of the invention as antiasthmatics. These methods have been published previously (see Abraham et al. (1983) Am. Rev. Respir. Dis. 128:839-844; Allegra et al. (1983) J. Appl. Physiol. 55:726-730; Russi et al. (1985) J. Appl. Physiol. 59:1416-1422; Soler et al. ((1989) J. Appl. Physiol. 67:406-413. Each sheep serves as its own control. Body weights for these animals ranged from 20-50 kilograms.
In these studies, 1 mg of Compound 13 was dissolved in 3 mL distilled water, and the total solution delivered as an aerosol 0.5 hours before, 4 hours after, and 24 hours after antigen challenge (total dose=1 mg; n=3).
Twenty-four hours after antigen challenge in both the control and drug trial, the sheep developed airway hyper-responsiveness. Airway hyper-responsiveness is expressed as PC400, the concentration of carbachol that causes a 400% increase in SRL; therefore, a decrease in PC400 indicates hyper-responsiveness. […] The number of breath units fell to 7 for those animals in the control group.

Compound | Ki [1] [nM] | further results
N=C(N)Nc1ccc2[nH]c(Cc3nc4ccc(C(=O)NCCc5cccc6ccccc56)cc4n3CC(O)CO)nc2c1 (stereo not shown) [Compound 132, 2-(5-guanidino-1H-benzoimidazol-2-ylmethyl)-3-(2,3-dihydroxy)propyl-N-(2-naphth-1-ylethyl)-3H-benzoimidazole-5-carboxamide] | 0.02 | 
NCc1ccc2[nH]c(Cc3nc4cc(OCCCCc5ccccc5)ccc4[nH]3)nc2c1 [Compound 26, C-{2-[5-(4-phenylbutoxy)-1H-benzoimidazol-2-ylmethyl]-1H-benzoimidazol-5-yl}methylamine] | 33000 | 
Cn1c(Cc2nc3c([nH]2)CCN(C=N)C3)nc2ccc(C(=O)NCCc3cccc4ccccc34)cc21 [Compound 117, 2-(5-iminomethyl-4,5,6,7-tetrahydro-1H-imidazo[4,5-c]pyridin-2-ylmethyl)-3-methyl-N-(2-naphth-1-ylethyl)-3H-benzoimidazole-5-carboxamide] | 8 | 
CC(C)COC(=O)c1ccccc1OCCNC(=O)c1ccc2nc(C(C)c3nc4cc(O)ccc4[nH]3)n(C)c2c1 (stereo not shown) [Compound 43, isobutyl 2-(2-{2-[1-(5-hydroxy-1H-benzoimidazol-2-yl)ethyl]-3-methyl-3H-benzoimidazol-5-ylcarbonylamino}ethoxy)benzoate] | 2 | 
CC(=N)N1CCc2[nH]c(C(C)c3nc4ccc(C(=O)NCCc5cccc6ccccc56)cc4n3C)nc2C1 (stereo not shown) [Compound 169, 2-{1-[5-(1-iminoethyl)-4,5,6,7-tetrahydro-1H-imidazo[4,5-c]pyridin-2-yl]ethyl}-3-methyl-N-(2-naphth-1-ylethyl)-3H-benzoimidazole-5-carboxamide] | 1 | 
2-(5-Guanidino-1H-benzoimidazol-2-ylmethyl)-N-(2-naphthalen-1-ylethyl)-3-methyl-3H-benzoimidazole-5-carboxyamide [Compound 28] | 0.07 | 
CC(=N)N1CCc2[nH]c(C(=O)c3nc4ccc(C(=O)NCCc5cccc6ccccc56)cc4n3C)nc2C1 [Compound 116, 2-[5-(1-iminoethyl)-4,5,6,7-tetrahydro-1H-imidazo[4,5-c]pyridin-2-ylcarbonyl]-3-methyl-N-(2-naphth-1-ylethyl)-3H-benzoimidazole-5-carboxamide] | 6 | 
NCc1ccc2[nH]c(Cc3nc4cc(C(=O)NCCc5cccc6ccccc56)ccc4[nH]3)nc2c1 [Compound 13] |  | PC400 (airway hyper-responsiveness; concentration of carbachol that causes a 400% increase in SRL) (antigen challenged sheep; 24 hours after antigen challenge, 1 mg aerosol 0.5 hours before, 4 hours after and 24 hours after challenge, n=3, baseline 15, control group fell to 7): ~15 breath units; airway function (antigen challenged sheep; antigen challenged sheep, aerosol treatment): significant improvement in airway function; onset of airway hyper-responsiveness (antigen challenged sheep; antigen challenged sheep, aerosol, 24 hours after challenge): block the onset of hyper-responsiveness
CCOC(=O)c1ccccc1OCCNC(=O)N1CCc2[nH]c(C(C)c3nc4c([nH]3)CCN(C(C)=N)C4)nc2C1 (stereo not shown) [Compound 203, ethyl 2-[2-(2-{1-[5-(1-iminoethyl)-4,5,6,7-tetrahydro-1H-imidazo[4,5-c]pyridin-2-yl]ethyl}-1,4,6,7-tetrahydroimidazo[4,5-c]pyridin-5-ylcarbonylamino)ethoxy]benzoate] | 8 | 
COCCn1c(C(C)c2nc3c([nH]2)CCN(C(C)=N)C3)nc2ccc(C(=O)NCCOc3ccccc3C(=O)O)cc21 (stereo not shown) [Compound 194, 2-[2-(2-{1-[5-(1-iminoethyl)-4,5,6,7-tetrahydro-1H-imidazo [4,5-c]pyridin-2-yl]ethyl)-3-(2-methoxyethyl)-3H-benzoimidazol-5-ylcarbonylamino)ethoxy]benzoic acid] | 9 | 
CC(=N)N1CCc2[nH]c(C(C)c3nc4ccc(C(=O)NCCOc5ccccc5C(=O)O)cc4n3C)nc2C1 (stereo not shown) [Compound 74, 2-[2-(2-{1-[5-(1-iminoethyl)-4,5,6,7-tetrahydro-1H-imidazo[4,5-c]pyridin-2-yl]ethyl}-3-methyl-3H-benzoimidazol-5-ylcarbonylamino)ethoxy]benzoic acid] | 6 | 
